Tests used:
Solobacterium moorei = assay: in vitro oral biofilm model, sequencing: relative abundance; format: cell-based
Method: 100 µl of saliva was added to a 24-well plate, then 100 µl of the corresponding concentration solution was added respectively to the experimental groups, and finally 800 µl of SHI medium was added. The plate was placed in an anaerobic box and cultured anaerobically at 37°C for 10 hours. Then, the supernatant was discarded, and the multi-species biofilm adhered to the well plate was obtained. After discarding the supernatant from the incubated biofilm, the biofilm adhered to the bottom of the well plate was re-suspended with sterile water by pipetting, transferred to a 1.5 ml centrifuge tube, and stored until gene sequencing was performed.
Based on sequencing results, halitosis-causing pathogenic bacteria in the biofilm were identified. Four key halitosis-causing pathogenic bacteria were identified: Fusobacterium nucleatum, Streptococcus mutans, Prevotella intermedia, and Solobacterium moorei. All four bacteria had been proven to be positively correlated with VSC concentration. […] Therefore, this example adopts lysate, NAD, 2-hydroxy-3-phenylpropionic acid, and polypeptide GP(Hyp)GAG to intervene in halitosis-causing pathogenic bacteria in the biofilm, evaluating changes in the relative abundance of pathogenic bacteria after intervention. Additionally, Prevotella intermedia is a periodontal pathogen that can produce indole via the tryptophan metabolic pathway. […]

VSC concentration = assay: in vitro Halimeter determination of VSC concentration in saliva fermentation; format: cell-based, halitosis subjects (saliva); details: compared with CK group, anaerobic cultivation 10 hours
Method: Fresh saliva was collected from 10 halitosis subjects (Halimeter index >120). Subjects were required not to consume any food or drink for 2 hours before donating saliva. Saliva was directly spat into a saliva collection tube, 5 ml per person, and mixed. The mixture was centrifuged at 4500 rpm for 10 minutes, and the supernatant was collected, aliquoted, and stored at -80°C for subsequent experimental studies.
(§1) Lysate observation group: In a 10 ml sample vial, 100 µl of saliva was added first, followed by the separate addition of ET-22 viable bacteria (1.0×10^9 CFU/ml), ET-22 heat-inactivated bacterial cells (obtained by inactivating viable bacteria at 1.0×10^9 CFU/ml), and lysate (obtained by inactivating and then filtering viable bacteria at 1.0×10^9 CFU/ml), each at 100µl. Then, 1.8 ml of SHI medium was added. After filling with nitrogen, anaerobic cultivation was performed for 10 hours. Then, the obtained culture was placed in a 60°C water bath for 30-min incubation. VSC concentration was measured using the in vitro Halimeter method.
(§2) Group of two nucleotides: In a 10 ml sample vial, 100 µl of saliva was added first, followed by the separate addition of ET-22 viable bacteria (1.0×10^9 CFU/ml), ET-22 heat-inactivated bacterial cells (obtained by inactivating viable bacteria at 1.0×10^9 CFU/ml), NAD, and FAD (500 µg/ml, 100 µg/ml, 10 µg/ml), each at 100µl. Then, 1.8 ml of SHI medium was added. After filling with nitrogen, anaerobic cultivation was performed for 10 hours. Then, the obtained culture was placed in a 60°C water bath for 30-min incubation. VSC concentration was measured using the in vitro Halimeter method.
as §2, with “five organic acids:” for “two nucleotides:”, “heat-inactivating” for “inactivating”, “CFU/ml),” for “CFU/ml), NAD,”, “five organic acid components” for “FAD”
as §2, with “Observation group” for “Group”, “four polypeptides:” for “two nucleotides:”, “heat-inactivating” for “inactivating”, “CFU/ml),” for “CFU/ml), NAD,”, “components of four polypeptides” for “FAD”
as §1, with “Peptidoglycan” for “Lysate observation”, “peptidoglycan (peptidoglycan extracted from” for “lysate (obtained by inactivating and then filtering”, “CFU/ml).” for “CFU/ml), each at 100µl.”, “method. […]” for “method.”

In the case of `O=C(O)C(O)Cc1ccccc1` (stereo not shown) [2-hydroxy-3-phenylpropionic acid], the “growth of Solobacterium moorei (relative abundance)” value (Solobacterium moorei; multi-species biofilm, 37°C 10 hours) is reported as “significantly inhibit the growth”, the “inhibitory effect on Solobacterium moorei” value (Solobacterium moorei; relative to ET-22 viable bacteria or ET-22 heat-inactivated bacteria) is reported as “better” and the VSC concentration (VSC concentration; high concentration (500 µg/ml)) is reported as “significantly lower than that in the control group”. The VSC concentration (VSC concentration; medium concentration (100 µg/ml)) was “significantly lower than that in the control group”.

From patent EP4772186A1, “USE AND COMPOSITION OF POSTBIOTIC OF LACTOBACILLUS PARACASEI ET-22” (Inner Mongolia Yili Industrial Group Co., Ltd., priority 2023, dated 2025)
